# According to article PMC7486443, “Generation of Phenothiazine with Potent Anti-TLK1 Activity for Prostate Cancer Therapy” (iScience, 2020):
# Columns and labels:
# Test in all cases: biochemical
# Parameters in all cases: DiscoverX KINOMEscan scanMAX competition binding panel, single concentration, percent of control; remaining binding: dose or concentration left out as unconfirmed
# Settings in all cases: KINOMEscan binding, percent of control; read-out: Table S4_SCANMAX REPORT - related to Fig. 1 / Percent Control
# [1] = molecular target: PIK3CA(E542K) (Homo sapiens, UniProt P42336, E542K)
# Description: (§1) Certain PTH are potent inhibitors of TLK1 ([Ronald et al., 2013]), and by inference TLK2, as these proteins must homo- and hetero-dimerize for full activation ([Mortuza et al., 2018]), in addition to being highly similar in sequence and structure, and thus similarly targetable. […] Two noteworthy observations are that PTHs are structurally different from many known ATP competitive inhibitors, and that J54 was carefully designed based on considerations reported previously for the THD—the Kinomescan has confirmed that J54 is specific to TLKs. We should point out that although PTH were the first reported inhibitors of TLKs ([Ronald et al., 2013]), other inhibitors particularly of TLK2 have since been reported ([Kim et al., 2016]), some based on structure docking ([Mortuza et al., 2018]), although neither their potency and effects in vivo nor their potential off-target effects have not been reported as they were selected from libraries of kinase inhibitors. Supplementary file mmc2.xlsx: Table S4. SCANMAX Table, Related to Figure 1 Kinomescan of J54 inhibitory activity on human kinases.
# [2] = molecular target: PIM2 (Homo sapiens, UniProt Q9P1W9)
# Description: as §1
# [3] = molecular target: ULK3 (Homo sapiens, UniProt Q6PHR2)
# Description: as §1
# [4] = molecular target: MAP4K4 (Homo sapiens, UniProt O95819)
# Description: as §1
# [5] = molecular target: T1, PFTK1 (Homo sapiens, UniProt O94921)
# T1 construct: gene CDK14
# T1 sequence (O94921 whole entry): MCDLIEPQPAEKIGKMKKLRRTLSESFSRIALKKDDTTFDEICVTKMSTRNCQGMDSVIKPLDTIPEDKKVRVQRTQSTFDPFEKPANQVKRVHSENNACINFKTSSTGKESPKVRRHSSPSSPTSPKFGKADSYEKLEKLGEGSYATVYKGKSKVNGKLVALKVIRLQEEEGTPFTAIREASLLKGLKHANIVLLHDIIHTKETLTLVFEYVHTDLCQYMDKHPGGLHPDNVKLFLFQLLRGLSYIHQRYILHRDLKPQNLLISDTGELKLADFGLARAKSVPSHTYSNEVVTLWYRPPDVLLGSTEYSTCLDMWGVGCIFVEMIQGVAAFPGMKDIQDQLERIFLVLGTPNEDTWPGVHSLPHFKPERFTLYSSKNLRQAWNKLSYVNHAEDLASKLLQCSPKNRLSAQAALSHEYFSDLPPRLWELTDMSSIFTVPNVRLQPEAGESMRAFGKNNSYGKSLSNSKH
# Description: as §1
# [6] = molecular target: EPHA7 (Homo sapiens, UniProt Q15375)
# Description: as §1
# [7] = molecular target: PAK6 (Homo sapiens, UniProt Q9NQU5)
# Description: as §1
# [8] = molecular target: PIK3CD (Homo sapiens, UniProt O00329)
# Description: as §1
# [9] = molecular target: BTK (Homo sapiens, UniProt Q06187)
# Description: as §1
# [10] = molecular target: T2, RSK2(Kin.Dom.1-N-terminal) (Homo sapiens, UniProt P51812)
# T2 construct: gene RPS6KA3; Kin.Dom.1-N-terminal
# T2 sequence (P51812 whole entry): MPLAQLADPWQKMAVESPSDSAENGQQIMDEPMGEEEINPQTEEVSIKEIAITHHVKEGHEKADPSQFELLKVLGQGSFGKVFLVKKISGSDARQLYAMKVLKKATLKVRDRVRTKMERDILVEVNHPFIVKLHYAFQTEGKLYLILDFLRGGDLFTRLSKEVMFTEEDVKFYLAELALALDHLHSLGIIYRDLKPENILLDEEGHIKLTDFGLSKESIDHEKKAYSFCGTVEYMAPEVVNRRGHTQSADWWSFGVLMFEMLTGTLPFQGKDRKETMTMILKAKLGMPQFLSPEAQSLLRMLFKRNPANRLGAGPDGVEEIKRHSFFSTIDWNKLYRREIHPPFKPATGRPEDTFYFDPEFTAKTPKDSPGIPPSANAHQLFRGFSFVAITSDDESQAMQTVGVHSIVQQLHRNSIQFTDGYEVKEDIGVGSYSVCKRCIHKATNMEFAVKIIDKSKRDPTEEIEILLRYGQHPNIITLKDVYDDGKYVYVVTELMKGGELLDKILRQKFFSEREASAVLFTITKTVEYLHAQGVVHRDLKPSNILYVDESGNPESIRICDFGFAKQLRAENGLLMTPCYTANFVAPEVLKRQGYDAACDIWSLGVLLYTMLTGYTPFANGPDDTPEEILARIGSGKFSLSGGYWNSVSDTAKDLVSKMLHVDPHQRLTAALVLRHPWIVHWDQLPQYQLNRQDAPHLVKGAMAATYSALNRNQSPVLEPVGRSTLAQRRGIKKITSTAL
# Description: as §1
# [11] = molecular target: EPHA4 (Homo sapiens, UniProt P54764)
# EPHA4, sequence (P54764 whole entry): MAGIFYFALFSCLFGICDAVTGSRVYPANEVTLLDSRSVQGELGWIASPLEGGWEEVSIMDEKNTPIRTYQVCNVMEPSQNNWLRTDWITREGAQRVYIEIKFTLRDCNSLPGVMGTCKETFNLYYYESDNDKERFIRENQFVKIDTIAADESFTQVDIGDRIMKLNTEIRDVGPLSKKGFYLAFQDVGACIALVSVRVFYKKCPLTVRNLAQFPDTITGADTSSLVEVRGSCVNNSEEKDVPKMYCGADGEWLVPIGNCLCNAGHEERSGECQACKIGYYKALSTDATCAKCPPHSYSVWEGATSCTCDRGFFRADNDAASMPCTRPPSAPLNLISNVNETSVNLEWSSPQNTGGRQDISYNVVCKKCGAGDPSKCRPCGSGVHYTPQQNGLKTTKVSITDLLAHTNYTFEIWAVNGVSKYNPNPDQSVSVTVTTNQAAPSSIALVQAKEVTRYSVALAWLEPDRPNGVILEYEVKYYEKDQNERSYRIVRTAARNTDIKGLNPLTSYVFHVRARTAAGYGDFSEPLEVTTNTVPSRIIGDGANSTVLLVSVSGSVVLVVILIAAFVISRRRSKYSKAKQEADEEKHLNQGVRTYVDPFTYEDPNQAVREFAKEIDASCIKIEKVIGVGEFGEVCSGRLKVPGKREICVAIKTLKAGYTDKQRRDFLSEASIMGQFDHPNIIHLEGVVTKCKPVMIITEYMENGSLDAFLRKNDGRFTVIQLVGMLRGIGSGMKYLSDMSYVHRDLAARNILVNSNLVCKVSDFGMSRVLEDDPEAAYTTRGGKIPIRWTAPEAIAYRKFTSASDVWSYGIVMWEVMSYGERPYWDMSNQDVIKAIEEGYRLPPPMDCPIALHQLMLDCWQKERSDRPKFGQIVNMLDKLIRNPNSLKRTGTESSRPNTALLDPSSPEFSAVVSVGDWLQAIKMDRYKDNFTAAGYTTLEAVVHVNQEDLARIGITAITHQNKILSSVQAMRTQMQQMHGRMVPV
# Description: as §1
# [12] = molecular target: GRK1 (Homo sapiens, UniProt Q15835)
# Description: as §1
# [13] = molecular target: LRRK2(G2019S) (Homo sapiens, UniProt Q5S007, G2019S)
# LRRK2(G2019S), sequence (Q5S007 whole entry G2019S): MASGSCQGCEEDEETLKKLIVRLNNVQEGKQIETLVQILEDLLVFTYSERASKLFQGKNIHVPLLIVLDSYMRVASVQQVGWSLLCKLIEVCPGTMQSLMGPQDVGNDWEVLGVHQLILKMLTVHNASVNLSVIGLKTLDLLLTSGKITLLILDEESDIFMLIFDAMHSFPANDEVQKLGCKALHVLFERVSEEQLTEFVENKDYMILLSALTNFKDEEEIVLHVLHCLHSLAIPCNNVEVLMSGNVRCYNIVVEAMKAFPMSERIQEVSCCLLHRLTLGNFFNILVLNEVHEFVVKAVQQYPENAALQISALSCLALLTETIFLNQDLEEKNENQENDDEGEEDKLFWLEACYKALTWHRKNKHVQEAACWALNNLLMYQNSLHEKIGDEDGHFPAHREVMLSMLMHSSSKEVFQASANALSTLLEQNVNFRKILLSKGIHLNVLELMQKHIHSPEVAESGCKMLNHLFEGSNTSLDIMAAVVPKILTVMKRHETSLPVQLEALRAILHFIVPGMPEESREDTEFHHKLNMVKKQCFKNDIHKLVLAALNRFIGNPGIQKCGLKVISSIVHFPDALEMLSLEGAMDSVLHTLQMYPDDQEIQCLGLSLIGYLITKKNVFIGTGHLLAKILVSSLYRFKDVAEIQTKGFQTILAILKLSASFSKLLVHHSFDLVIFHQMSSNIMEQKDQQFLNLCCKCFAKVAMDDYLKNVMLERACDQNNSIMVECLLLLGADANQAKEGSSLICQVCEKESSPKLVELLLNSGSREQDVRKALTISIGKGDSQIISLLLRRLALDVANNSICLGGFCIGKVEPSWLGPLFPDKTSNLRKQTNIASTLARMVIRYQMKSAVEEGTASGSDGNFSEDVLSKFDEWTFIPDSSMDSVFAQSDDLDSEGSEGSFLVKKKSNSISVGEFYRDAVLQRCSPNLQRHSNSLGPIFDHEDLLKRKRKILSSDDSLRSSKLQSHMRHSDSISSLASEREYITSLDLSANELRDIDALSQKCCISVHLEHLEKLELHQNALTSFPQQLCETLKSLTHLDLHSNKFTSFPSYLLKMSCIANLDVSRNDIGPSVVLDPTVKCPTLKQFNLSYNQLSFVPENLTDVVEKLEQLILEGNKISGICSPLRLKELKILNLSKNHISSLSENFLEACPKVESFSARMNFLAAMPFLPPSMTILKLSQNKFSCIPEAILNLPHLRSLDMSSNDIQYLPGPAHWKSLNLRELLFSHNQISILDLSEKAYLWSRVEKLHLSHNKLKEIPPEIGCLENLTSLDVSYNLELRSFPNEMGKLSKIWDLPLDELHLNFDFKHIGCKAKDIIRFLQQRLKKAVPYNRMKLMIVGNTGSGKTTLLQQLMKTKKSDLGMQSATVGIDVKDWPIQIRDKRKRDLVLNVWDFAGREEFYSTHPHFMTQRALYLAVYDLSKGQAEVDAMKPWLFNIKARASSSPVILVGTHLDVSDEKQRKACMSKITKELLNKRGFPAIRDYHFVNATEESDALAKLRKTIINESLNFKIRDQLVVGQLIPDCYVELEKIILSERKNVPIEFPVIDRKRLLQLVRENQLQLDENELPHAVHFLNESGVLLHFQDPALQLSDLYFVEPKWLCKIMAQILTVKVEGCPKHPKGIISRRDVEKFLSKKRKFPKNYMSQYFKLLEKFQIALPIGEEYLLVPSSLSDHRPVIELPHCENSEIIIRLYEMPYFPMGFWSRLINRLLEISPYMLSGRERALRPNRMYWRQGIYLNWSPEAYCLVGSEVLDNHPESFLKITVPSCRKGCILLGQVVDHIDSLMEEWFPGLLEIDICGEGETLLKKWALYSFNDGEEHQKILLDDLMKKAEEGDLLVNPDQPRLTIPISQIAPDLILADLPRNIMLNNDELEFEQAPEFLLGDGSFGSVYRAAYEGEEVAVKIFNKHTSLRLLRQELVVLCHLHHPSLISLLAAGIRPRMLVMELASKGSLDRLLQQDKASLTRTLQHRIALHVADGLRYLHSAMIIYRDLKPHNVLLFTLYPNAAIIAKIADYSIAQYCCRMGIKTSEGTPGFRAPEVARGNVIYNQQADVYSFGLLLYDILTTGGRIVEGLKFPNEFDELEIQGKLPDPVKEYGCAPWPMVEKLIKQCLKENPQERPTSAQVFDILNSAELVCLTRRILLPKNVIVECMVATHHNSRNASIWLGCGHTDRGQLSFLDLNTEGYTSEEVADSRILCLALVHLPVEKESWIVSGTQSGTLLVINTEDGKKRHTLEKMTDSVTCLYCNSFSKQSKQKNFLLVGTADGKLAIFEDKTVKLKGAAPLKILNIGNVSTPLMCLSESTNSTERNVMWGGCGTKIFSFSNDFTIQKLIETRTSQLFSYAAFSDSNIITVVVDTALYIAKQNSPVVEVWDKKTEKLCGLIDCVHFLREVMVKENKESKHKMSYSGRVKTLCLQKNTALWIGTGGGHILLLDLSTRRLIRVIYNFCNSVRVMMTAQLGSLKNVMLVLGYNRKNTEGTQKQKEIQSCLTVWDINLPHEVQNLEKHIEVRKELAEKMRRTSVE
# Description: as §1
# [14] = molecular target: BMX (Homo sapiens, UniProt P51813)
# Description: as §1
# [15] = molecular target: T3, SGK (Homo sapiens, UniProt O00141)
# T3 construct: gene SGK1
# Description: as §1
# [16] = molecular target: PRKX (Homo sapiens, UniProt P51817)
# PRKX, sequence (P51817 whole entry): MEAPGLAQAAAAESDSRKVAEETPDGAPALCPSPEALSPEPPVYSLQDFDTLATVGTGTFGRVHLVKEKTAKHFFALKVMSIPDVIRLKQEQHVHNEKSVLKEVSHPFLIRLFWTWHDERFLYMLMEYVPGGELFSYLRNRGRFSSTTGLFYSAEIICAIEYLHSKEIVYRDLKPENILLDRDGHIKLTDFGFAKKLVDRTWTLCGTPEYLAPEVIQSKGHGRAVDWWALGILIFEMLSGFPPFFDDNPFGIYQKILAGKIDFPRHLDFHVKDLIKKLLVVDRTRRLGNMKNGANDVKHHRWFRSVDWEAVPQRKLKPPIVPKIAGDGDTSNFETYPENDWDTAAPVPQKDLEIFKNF
# Description: as §1
# [17] = molecular target: T4, ABL1(H396P)-phosphorylated (Homo sapiens, UniProt P00519, H396P)
# T4 construct: phosphorylated
# Description: as §1
# [18] = molecular target: CDK5 (Homo sapiens, UniProt Q00535)
# Description: as §1
smiles,measurement,setting,value
c1ccc2c(c1)Sc1ccccc1N2CCN1CCOCC1 [J54],remaining binding,[1],100%
same,remaining binding,[2],42%
same,remaining binding,[3],79%
same,remaining binding,[4],66%
same,remaining binding,[5],100%
same,remaining binding,[6],100%
same,remaining binding,[7],100%
same,remaining binding,[8],100%
same,remaining binding,[9],97%
same,remaining binding,[10],97%
same,remaining binding,[11],100%
same,remaining binding,[12],100%
same,remaining binding,[13],38%
same,remaining binding,[14],100%
same,remaining binding,[15],93%
same,remaining binding,[16],91%
same,remaining binding,[17],100%
same,remaining binding,[18],99%
